Entries after “also recorded” stand apart in the source; their conditions may differ.
How the values were obtained:
[1] = tested on: EMX1 locus in HEK293T cells; assay: HDR frequency by HindIII digestion, EMX1 locus, HEK293T cells; type: cell-based, human; details: for HDR efficiency: 50-200 ρmol template 1
From the text: (§1) For EMX1: forward [NT] ID NO:1404) and [NT] NO:1405). For DYRK1: forward [NT] ID NO:1406) and reverse [NT] NO:1407).

[2] = tested on: EMX1 locus in HEK293T cells; assay: NHEJ frequency by T7 endonuclease I assay, EMX1 locus, HEK293T cells; type: cell-based, human; details: for NHEJ frequency: nocodazole-treated cells (200 ng/ml, 17 h), 50-200 ρmol template 1
From the text: as §1

[3] = tested on: EMX1 locus in human embryonic stem cells (hES); assay: HDR frequency by HindIII digestion, EMX1 locus, human ES cells; type: cell-based; details: nocodazole synchronization (16 h), 30 or 100 ρmol Cas9 RNP, template 4
[4] = tested on: DYRK1 locus in HEK293T cells; assay: NHEJ frequency by T7 endonuclease I assay, DYRK1 locus, HEK293T cells; type: cell-based, human; details: for NHEJ frequency: nocodazole synchronized cells
[5] = tested on: EMX1 locus in human embryonic stem cells (hES); assay: NHEJ frequency by T7 endonuclease I assay, EMX1 locus, human ES cells; type: cell-based; details: nocodazole synchronization (16 h), 100 ρmol template 4
HEK293T cells = assay: FACS analysis of DNA content / cell cycle; type: cell-based, human; details: nocodazole-treated vs untreated cells
From the text: The first objective was to test whether S phase was ideal for HDR in HEK293T cells. The approach was to chemically and reversibly synchronize the cells at G1, S and M phases (FIG. 1A). Lovastatin blocks at early G1 and partially at G2/M phase, by inhibiting HMG-CoA reductase and resulting in the depletion of mevalonate, which is an essential substrate for cholesterol synthesis. Mimosine arrests cells at the G1-S border prior to onset of DNA replication by an unknown mechanism. […] Excess thymidine causes feedback inhibition of deoxycytosine synthesis. Hydroxyurea blocks cells at S phase by decreasing the production of deoxyribonucleotide via inhibition of the enzyme ribonucleotide reductase. Nocodazole inhibits microtubule polymerization which is a signature structural feature as cells enter mitosis, causing arrest at G2/M phase. The drugs effects were confirmed by fluorescence activated cell sorter (FACS) analysis of the cell cycle (FIG. 1B).
FIG. 1A-1D depict the effect of cell cycle synchronization on NHEJ and HDR frequencies in HEK293T cells. (A) Chemical inhibitors were used to arrest cells at specific phases of cell cycle. Lovastatin (Lov) blocks cells in G1 phase by inhibiting cholesterol synthesis. […] The mean % NHEJ/HDR and standard deviation (error bars) were calculated from three experiments.

[6] = tested on: DYRK1 locus in HEK293T cells; assay: HDR frequency by HindIII digestion, DYRK1 locus, HEK293T cells; type: cell-based, human; details: for HDR frequency: nocodazole synchronized cells
human ES cells = assay: Cell viability of human ES cells during synchronization; type: cell-based; details: hES cells; aphidicolin treatment after nocodazole, at 10 h
[7] = 30 ρmol of Cas9, 100 ρmol template 1
[8] = 100 ρmol of Cas9, 100 ρmol template 1
[9] = nocodazole synchronization, 30 ρmol Cas9 RNP, 50 ρmol HDR template
[10] = all doses of Cas9 RNP, vs unsynchronized
[11] = inhibitor-synchronized cells, 30 ρmol of Cas9, 100 ρmol template 1
[12] = 30 and 100 ρmol Cas9 RNP, 100 ρmol HDR template 1, inhibitor synchronization before nucleofection

Cc1cn([C@H]2C[C@H](O)[C@@H](CO)O2)c(=O)[nH]c1=O [thymidine]
HDR frequency compared to the unsynchronized cells [1, 7]: slightly reduced
HDR frequency compared to the unsynchronized cells (reduced or not) [1, 8]: not
NHEJ frequency compared to the unsynchronized cells [2, 7]: slightly reduced
NHEJ frequency compared to the unsynchronized cells (reduced or not) [2, 8]: not

template 3: single-stranded oligonucleotide HDR template with HindIII and BamHI sites, 60-nt homology arms (DNA GGATCCAAGCTT; single-stranded DNA HDR donor oligonucleotide, chemistry not given here)
HDR frequency [1, 9]: 19%
Increase of HDR frequency on extending homology arms from 30 nt to 60 nt ([1]; nocodazole synchronization, vs template 2): four-fold

template 4: single-stranded HDR template, 90-nt homology arms, complementary orientation (DNA GGATCCAAGCTT; single-stranded DNA HDR donor oligonucleotide, chemistry not given here)
HDR frequency [1, 9]: 23%

COC(=O)Nc1nc2ccc(C(=O)c3cccs3)cc2[nH]1 [nocodazole]
HDR events [3]: no HDR event was detected
Enhancement of NHEJ frequency by nocodazole synchronization [4, 10]: more than two-fold
NHEJ frequency ([4]; 10 ρmol Cas9 RNP): 20-24%
NHEJ frequency ([4]; 30 ρmol Cas9 RNP): 45-47%
NHEJ frequency ([4]; 100 ρmol Cas9 RNP): 63-65%
NHEJ frequency ([5]; 30 ρmol Cas9 RNP): 9%
NHEJ frequency ([5]; 100 ρmol Cas9 RNP): 28-31%
HDR frequency relative to the unsynchronized cells ([1]; 30 ρmol Cas9 RNP, 50 ρmol HDR template (templates 1-7)): overall higher HDR frequency
HDR frequency [1, 11]: 19%
HDR efficiency ([1]; nocodazole synchronization, 10 ρmol Cas9 RNP): 9-15%
HDR efficiency ([1]; nocodazole synchronization, 30 ρmol Cas9 RNP): 22-28%
HDR efficiency ([1]; nocodazole synchronization, 100 ρmol Cas9 RNP): 24-32%
Highest HDR frequency (representative gel of triplicate experiment) ([1]; nocodazole synchronization, 100 ρmol of Cas9, 100 ρmol template 1): 31%
NHEJ frequency compared to the unsynchronized cells [2, 7]: increased the NHEJ frequency slightly
Increase of NHEJ frequency by synchronization ([2]; nocodazole vs unsynchronized, 10 ρmol Cas9 RNP): two-fold
Increase of NHEJ frequency by synchronization ([2]; nocodazole vs unsynchronized, 30 ρmol Cas9 RNP): 1.5 fold
Enhancement of NHEJ frequency by synchronization ([2]; nocodazole vs unsynchronized, 100 ρmol Cas9 RNP): diminished
NHEJ frequency ([2]; 10 ρmol Cas9 RNP): 15-17%
NHEJ frequency ([2]; 30 ρmol Cas9 RNP): 35-37%
NHEJ frequency ([2]; 100 ρmol Cas9 RNP): 46-49%
Enrichment of cells arrested at M phase (DNA content, FACS) (HEK293T cells): two-fold enrichment; also recorded: three-fold enrichment
Enhancement of HDR frequency by nocodazole synchronization [6, 10]: over six-fold
HDR frequency ([6]; 10 ρmol Cas9 RNP): 5-6%
HDR frequency ([6]; 30 ρmol Cas9 RNP): 12-17%
HDR frequency ([6]; 100 ρmol Cas9 RNP): 24-25%

CC[C@H](C)C(=O)O[C@H]1C[C@@H](C)C=C2C=C[C@H](C)[C@H](CC[C@@H]3C[C@@H](O)CC(=O)O3)[C@H]21 [lovastatin]
HDR frequency compared to the unsynchronized cells [1, 12]: greatly decreased
NHEJ frequency compared to the unsynchronized cells [2, 12]: greatly decreased

template 7: double-stranded HDR template assembled from two fragments by overlapping PCR of HEK293T genomic DNA (sense AAGCTTGGATCC; antisense GGATCCAAGCTT; DNA, phosphodiester; double-stranded HDR donor assembled by overlapping PCR)
HDR frequency [1, 9]: ~7%

C[C@@]1(CO)[C@H](O)CC[C@@]2(C)[C@H]1CC[C@H]1C[C@@H]3C[C@@]12CC[C@]3(O)CO [aphidicolin]
Cell viability (human ES cells): substantial drop in cell viability
HDR frequency [1, 11]: 15%
HDR frequency with aphidicolin block ([1]; nocodazole synchronized, aphidicolin 2 μg/ml added to media immediately after nucleofection, 30 ρmol Cas9 RNP, 50 ρmol template): significantly reduced
NHEJ frequency compared to the unsynchronized cells [2, 7]: increased the NHEJ frequency slightly

template 6: double-stranded HDR template PCR amplified from single-stranded template 5 (sense AAGCTTGGATCC; antisense GGATCCAAGCTT; DNA, phosphodiester; double-stranded PCR-amplified HDR donor)
HDR frequency [1, 9]: ~7%

NC(=O)NO [hydroxyurea]
HDR frequency compared to the unsynchronized cells [1, 12]: greatly decreased
NHEJ frequency compared to the unsynchronized cells [2, 12]: greatly decreased

NC(Cn1ccc(=O)c(O)c1)C(=O)O (centres unmarked) [mimosine]
HDR frequency compared to the unsynchronized cells [1, 12]: greatly decreased
NHEJ frequency compared to the unsynchronized cells [2, 12]: greatly decreased

template 2: single-stranded oligonucleotide HDR template with HindIII and BamHI sites, 30-nt homology arms (DNA GGATCCAAGCTT; single-stranded DNA HDR donor oligonucleotide, chemistry not given here)
HDR frequency [1, 9]: 5%

template 1: 183-nt single-strand DNA oligonucleotide HDR donor encoding a HindIII site, 90-nt and 55-nt asymmetrical homology arms (DNA CCACCGCTACGAAGCTTGTCATTGGAGGTGACATCGATGTCCTC; single-stranded DNA HDR donor oligonucleotide, chemistry not given here)
HDR frequency compared between templates ([1]; 30 ρmol Cas9 RNP, 50 ρmol HDR template): lower HDR frequency than template 3

B1: template 5: single-stranded HDR template, 90-nt homology arms, non-complementary orientation (SEQ ID NO:1397) (nucleic acid)
DNA: TGGCCAGGGAGTGGCCAGAGTCCAGCTTGGGCCCACGCAGGGGCCTGGCCAGCAGCAAGCAGCACTCTGCCCTCGTGGGTTTGTGGTTGCGGATCCAAGCTTTTGGAGGTGACATCGATGTCCTCCCCATTGGCCTGCTTCGTGGCAATGCGCCACCGGTTGATGTGATGGGAGCCCTTCTTCTTCTGCTCG
modifications: Synthetic nucleic acid sequence
HDR frequency [1, 9]: 20%
